Experimental data taken from US5099015A, “Trifluoromethyl 1-carba(1-dethia)cephems” (Eli Lilly and Company, priority 1991, dated 1992).
≈ marks a conversion by molar mass, not a printed value. Read-outs that look alike come from different tables or passages of the source.

Columns and labels:
Experiment in all cases: Agar dilution antibacterial test (MIC)
Format in all cases: cell-based
[1] = tested on: Citro CF17
Procedure: (§1) Fresh overnight cultures of test bacteria were diluted to approximately 1x(10)4 cells/microliter and applied in one microliter volumes to the surfaces of the agar plates. The innoculated plates were incubated overnight at 35° C. in ambient air. Minimum inhibitory concentration (mic) endpoints were recorded as the lowest antibiotic concentrations in micrograms per milliliter that inhibited the development of visible growth on the plates. The following summarizes the results of such tests with the compounds of the examples listed above.

[2] = tested on: Enterobacter aerogenes EB17
Procedure: as §1

[3] = tested on: Salmonella 1335
Procedure: as §1

[4] = tested on: Staphylococcus epidermidis 222
Procedure: as §1

[5] = tested on: Escherichia coli EC14
Procedure: as §1

[6] = tested on: Staphylococcus epidermidis EPI270
Procedure: as §1

[7] = tested on: Serratia X99
Procedure: as §1

[8] = tested on: Staphylococcus aureus S13E
Procedure: as §1

[9] = tested on: Staphylococcus aureus NRRL X1.1
Procedure: as §1

[10] = tested on: Proteus rett C24
Procedure: as §1

[11] = tested on: Staphylococcus pneumoniae Park 1
Procedure: as §1

[12] = tested on: Klebsiella pneumoniae X68
Procedure: as §1

[13] = tested on: Klebsiella pneumoniae KAE
Procedure: as §1

[14] = tested on: Escherichia coli TEM
Procedure: as §1

[15] = tested on: Morg morg PR15
Procedure: as §1

[16] = tested on: Proteus incon PR33
Procedure: as §1

[17] = tested on: Staphylococcus aureus V41
Procedure: as §1

[18] = tested on: Shig sonn. N9
Procedure: as §1

[19] = tested on: Serratia SE3
Procedure: as §1

[20] = tested on: Enterococcus faecium X66
Procedure: as §1

[21] = tested on: Enterobacter cloacae 265A
Procedure: as §1

[22] = tested on: Enterobacter cloacae EB5
Procedure: as §1

[23] = tested on: Staphylococcus aureus X400
Procedure: as §1

[24] = tested on: Enterococcus faecalis 2041
Procedure: as §1

[25] = tested on: Escherichia coli N10
Procedure: as §1

[26] = tested on: Klebsiella pneumoniae X26
Procedure: as §1

[27] = tested on: Acom AC12
Procedure: as §1

[28] = tested on: Enterobacter aerogenes C32
Procedure: as §1

[29] = tested on: Salmonella X514
Procedure: as §1

[30] = tested on: Haemophilus influenzae C.L.
Procedure: as §1

[31] = tested on: Staphylococcus pyogenes C203
Procedure: as §1

[32] = tested on: Haemophilus influenzae 76
Procedure: as §1

[33] = Klebsiella aerogenes, read-out: MIC

## Nc1nc(C(=NO)C(=O)N[C@@H]2C(=O)N3C(C(=O)O)=C(C(F)(F)F)CC[C@H]23)cs1 [Compound 5]
[1]
  MIC: 16 µg/mL (≈ 38.2 µM)
[2]
  MIC: .06 µg/mL (≈ 0.143 µM)
[3]
  MIC: .06 µg/mL (≈ 0.143 µM)
[4]
  MIC: 1 µg/mL (≈ 2.38 µM)
[5]
  MIC: .03 µg/mL (≈ 0.0715 µM)
[6]
  MIC: 4 µg/mL (≈ 9.54 µM)
[7]
  MIC: .5 µg/mL (≈ 1.19 µM)
[8]
  MIC: 4 µg/mL (≈ 9.54 µM)
[9]
  MIC: 1 µg/mL (≈ 2.38 µM)
[10]; Proteus rett C24
  MIC: .125 µg/mL (≈ 0.298 µM)
[11]
  MIC: .015 µg/mL (≈ 0.0358 µM)
[12]
  MIC: .06 µg/mL (≈ 0.143 µM)
[13]
  MIC: .06 µg/mL (≈ 0.143 µM)
[14]
  MIC: .03 µg/mL (≈ 0.0715 µM)
[15]
  MIC: 2 µg/mL (≈ 4.77 µM)
[16]
  MIC: .25 µg/mL (≈ 0.596 µM)
[17]
  MIC: 2 µg/mL (≈ 4.77 µM)
[18]
  MIC: .06 µg/mL (≈ 0.143 µM)
[19]
  MIC: 8 µg/mL (≈ 19.1 µM)
[20]
  MIC: 8 µg/mL (≈ 19.1 µM)
[21]
  MIC: 16 µg/mL (≈ 38.2 µM)
[22]
  MIC: .125 µg/mL (≈ 0.298 µM)
[23]
  MIC: 8 µg/mL (≈ 19.1 µM)
[24]
  MIC: 1 µg/mL (≈ 2.38 µM)
[25]
  MIC: .125 µg/mL (≈ 0.298 µM)
[26]
  MIC: .015 µg/mL (≈ 0.0358 µM)
[27]
  MIC: 2 µg/mL (≈ 4.77 µM)
[28]
  MIC: .25 µg/mL (≈ 0.596 µM)
[29]
  MIC: .015 µg/mL (≈ 0.0358 µM)

## N[C@@H](C(=O)N[C@@H]1C(=O)N2C(C(=O)O)=C(C(F)(F)F)CC[C@H]12)c1cccc(Br)c1 [Compound 7]
[1]; read-out: MIC
  MIC: 32 µg/mL (≈ 69.2 µM)
[2]; [33]
  MIC: 32 µg/mL (≈ 69.2 µM)
[3]; read-out: MIC
  MIC: 16 µg/mL (≈ 34.6 µM)
[4]; read-out: MIC
  MIC: 1 µg/mL (≈ 2.16 µM)
[30]; read-out: MIC
  MIC: 0.5 µg/mL (≈ 1.08 µM)
[5]; read-out: MIC
  MIC: 4 µg/mL (≈ 8.65 µM)
[6]; read-out: MIC
  MIC: 1 µg/mL (≈ 2.16 µM)
[7]; read-out: MIC
  MIC: 64 µg/mL (≈ 138 µM)
[8]
  MIC: 8 µg/mL (≈ 17.3 µM)
[9]; NRRLX1.1, read-out: MIC
  MIC: 1 µg/mL (≈ 2.16 µM)
[10]
  MIC: 128 µg/mL (≈ 277 µM)
[11]; PARK1, read-out: MIC
  MIC: 0.125 µg/mL (≈ 0.27 µM)
[12]; read-out: MIC
  MIC: 4 µg/mL (≈ 8.65 µM)
[13]; read-out: MIC
  MIC: 16 µg/mL (≈ 34.6 µM)
[14]; read-out: MIC
  MIC: 4 µg/mL (≈ 8.65 µM)
[15]; read-out: MIC
  MIC: 16 µg/mL (≈ 34.6 µM)
[16]; read-out: MIC
  MIC: 8 µg/mL (≈ 17.3 µM)
[17]; read-out: MIC
  MIC: 4 µg/mL (≈ 8.65 µM)
[19]
  MIC: > 128 µg/mL
[20]; read-out: MIC
  MIC: 16 µg/mL (≈ 34.6 µM)
[21]; read-out: MIC
  MIC: 64 µg/mL (≈ 138 µM)
[22]; read-out: MIC
  MIC: 64 µg/mL (≈ 138 µM)
[23]; read-out: MIC
  MIC: 16 µg/mL (≈ 34.6 µM)
[24]; read-out: MIC
  MIC: 8 µg/mL (≈ 17.3 µM)
[25]; read-out: MIC
  MIC: 8 µg/mL (≈ 17.3 µM)
[26]; read-out: MIC
  MIC: 0.25 µg/mL (≈ 0.541 µM)
[28]; [33]
  MIC: 16 µg/mL (≈ 34.6 µM)
[31]; read-out: MIC
  MIC: 0.125 µg/mL (≈ 0.27 µM)
[29]; read-out: MIC
  MIC: 4 µg/mL (≈ 8.65 µM)
[32]; read-out: MIC
  MIC: 1 µg/mL (≈ 2.16 µM)

## N[C@@H](C(=O)N[C@@H]1C(=O)N2C(C(=O)O)=C(C(F)(F)F)CC[C@H]12)c1cccc(F)c1 [Compound 8]
[1]; read-out: MIC
  MIC: 16 µg/mL (≈ 39.9 µM)
[2]; [33]
  MIC: 8 µg/mL (≈ 19.9 µM)
[3]; read-out: MIC
  MIC: 4 µg/mL (≈ 9.97 µM)
[4]; read-out: MIC
  MIC: 4 µg/mL (≈ 9.97 µM)
[30]; read-out: MIC
  MIC: 2 µg/mL (≈ 4.98 µM)
[5]; read-out: MIC
  MIC: 4 µg/mL (≈ 9.97 µM)
[6]; read-out: MIC
  MIC: 4 µg/mL (≈ 9.97 µM)
[7]; read-out: MIC
  MIC: 32 µg/mL (≈ 79.7 µM)
[8]
  MIC: 32 µg/mL (≈ 79.7 µM)
[9]; NRRLX1.1, read-out: MIC
  MIC: 2 µg/mL (≈ 4.98 µM)
[10]; Proteus rett C24, read-out: MIC
  MIC: 16 µg/mL (≈ 39.9 µM)
[11]; PARK1, read-out: MIC
  MIC: 0.25 µg/mL (≈ 0.623 µM)
[12]; read-out: MIC
  MIC: 2 µg/mL (≈ 4.98 µM)
[13]; read-out: MIC
  MIC: 16 µg/mL (≈ 39.9 µM)
[14]; read-out: MIC
  MIC: 2 µg/mL (≈ 4.98 µM)
[15]; read-out: MIC
  MIC: 32 µg/mL (≈ 79.7 µM)
[16]; read-out: MIC
  MIC: 16 µg/mL (≈ 39.9 µM)
[17]; read-out: MIC
  MIC: 16 µg/mL (≈ 39.9 µM)
[18]; read-out: MIC
  MIC: 2 µg/mL (≈ 4.98 µM)
[19]; read-out: MIC
  MIC: 64 µg/mL (≈ 159 µM)
[20]; read-out: MIC
  MIC: 64 µg/mL (≈ 159 µM)
[21]; read-out: MIC
  MIC: 32 µg/mL (≈ 79.7 µM)
[22]; read-out: MIC
  MIC: 16 µg/mL (≈ 39.9 µM)
[23]; read-out: MIC
  MIC: 64 µg/mL (≈ 159 µM)
[24]; read-out: MIC
  MIC: 32 µg/mL (≈ 79.7 µM)
[25]; read-out: MIC
  MIC: 4 µg/mL (≈ 9.97 µM)
[26]; read-out: MIC
  MIC: 2 µg/mL (≈ 4.98 µM)
[28]; [33]
  MIC: 16 µg/mL (≈ 39.9 µM)
[31]; read-out: MIC
  MIC: 0.06 µg/mL (≈ 0.15 µM)
[29]; read-out: MIC
  MIC: 2 µg/mL (≈ 4.98 µM)
[32]; read-out: MIC
  MIC: 2 µg/mL (≈ 4.98 µM)

## NC(C(=O)N[C@@H]1C(=O)N2C(C(=O)O)=C(C(F)(F)F)CC[C@H]12)c1cccc(C(F)(F)F)c1 (stereo partly drawn) [Compound 9, [6R,7S]-7-β-[D-α-(amino)-3-trifluoromethylphenylacetylamino]-3-trifluoromethyl-1-carba-1-carba-1-dethia3-cephem-4-carboxylic acid]
[1]
  MIC: 128 µg/mL (≈ 284 µM)
[2]
  MIC: 128 µg/mL (≈ 284 µM)
[3]
  MIC: 64 µg/mL (≈ 142 µM)
[4]
  MIC: 1 µg/mL (≈ 2.22 µM)
[30]
  MIC: 1 µg/mL (≈ 2.22 µM)
[5]
  MIC: 8 µg/mL (≈ 17.7 µM)
[6]
  MIC: 4 µg/mL (≈ 8.86 µM)
[7]
  MIC: 128 µg/mL (≈ 284 µM)
[8]
  MIC: 16 µg/mL (≈ 35.5 µM)
[9]
  MIC: 2 µg/mL (≈ 4.43 µM)
[10]; Proteus rett C24
  MIC: 64 µg/mL (≈ 142 µM)
[11]
  MIC: .125 µg/mL (≈ 0.277 µM)
[12]
  MIC: 16 µg/mL (≈ 35.5 µM)
[13]
  MIC: 64 µg/mL (≈ 142 µM)
[14]
  MIC: 16 µg/mL (≈ 35.5 µM)
[15]
  MIC: 32 µg/mL (≈ 70.9 µM)
[16]
  MIC: 32 µg/mL (≈ 70.9 µM)
[17]
  MIC: 4 µg/mL (≈ 8.86 µM)
[19]
  MIC: > 128 µg/mL
[20]
  MIC: 32 µg/mL (≈ 70.9 µM)
[21]
  MIC: 128 µg/mL (≈ 284 µM)
[22]
  MIC: 4 µg/mL (≈ 8.86 µM)
[23]
  MIC: 16 µg/mL (≈ 35.5 µM)
[24]
  MIC: 16 µg/mL (≈ 35.5 µM)
[25]
  MIC: 32 µg/mL (≈ 70.9 µM)
[26]
  MIC: 1 µg/mL (≈ 2.22 µM)
[27]
  MIC: 32 µg/mL (≈ 70.9 µM)
[28]
  MIC: 128 µg/mL (≈ 284 µM)
[31]
  MIC: 6 µg/mL (≈ 13.3 µM)
[29]
  MIC: 32 µg/mL (≈ 70.9 µM)
[32]
  MIC: 1 µg/mL (≈ 2.22 µM)
